Measurements reported in patent US4515891A, “Process for the production of disaccharide-tripeptide and disaccharide-tetrapeptide” (priority 1982, dated 1985).

Assays:
[1] = Solubility (physicochemical properties)
antiovalbumin antibody = assay: Immunostimulant (immunoadjuvant) activity: production of humoral antibody; format: in vivo, Hartley strain guinea pigs; conditions: guinea pigs bled 4 weeks after sensitization with 1 mg ovalbumin + 100 μg test compound
Experimental: (§1) The animals sensitized were prepared as follows. Groups of 5 female Hartley strain guinea pigs, weighing 200 to 300 g, were injected in the left hind food-pad with 0.2 ml of a water-in-oil emulsion containing 1 mg of crystalline ovalbumin as antigen and 100 μg of test compound. The water-in-oil emulsion consisted of Drakeol 6VR (Pennsylvania Refining Co., U.S.A.), Arlacel A (Atlas Chemical Industries Inc., U.S.A.) and 1/75M phosphate-buffered physiological saline (pH 7.0) in a ratio of 4:1:5 by volume. Control guinea pigs were injected with a water-in-oil emulsion of similar composition containing the antigen but not test compound (Freund's incomplete adjuvant).
To test for the enhancement of production of humoral antibody, 4 weeks after the sensitization the guinea pigs were bled by cardiac puncture. The levels of antiovalbumin antibody nitrogen were measured quantitatively using a spectrophotometric technique.

[2] = test system: delayed-type hypersensitivity to ovalbumin; assay: Immunostimulant (immunoadjuvant) activity: corneal response; format: in vivo, Hartley strain guinea pigs; conditions: grade 0 to 3.0; guinea pigs sensitized with 1 mg ovalbumin + 100 μg test compound in water-in-oil emulsion; intracorneal ovalbumin 2 weeks after sensitization, read after 48 hours
Experimental: as §1
To test for the induction of delayed-type hypersensitivity to ovalbumin, that is, the enhancement of cell-mediated immunity, 2 weeks after the sensitization the guinea pigs were given an intracorneal injection of ovalbumin solution (20 mg/ml saline) to make a transient disc of opacity of approximately 5 mm in diameter. The eyes were examined after 48 hours and the extent and degree of corneal opacity were recorded. The reactions were graded from 3.0, for a strong reaction where the whole cornea was thickened, opaque and grayish-white, to 1.0, where slight opacity was observed. When no visible difference from the uninjected eye was detected, the reaction was graded as 0.

[3] = test system: Pseudomonas aeruginosa No. 12; assay: Enhancement of nonspecific resistance to bacterial infections; format: in vivo, Std-ddY strain mice; conditions: survivors 7 days after infection, mice
Experimental: Male Std-ddY strain mice weighing about 23 g were used. Test compounds were dissolved in physiological saline and intravenously administered to the animals 72, 48 and 24 hours before the intraperitoneal infection with Pseudomonas aeruginosa No. 12 (inoculum size: 2×10^6 cells/mouse). The number of survivors were recorded 7 days after the infection.

[4] = test system: delayed-type hypersensitivity to ovalbumin; assay: Immunostimulant (immunoadjuvant) activity: skin reaction; format: in vivo, Hartley strain guinea pigs; conditions: extent of induration; guinea pigs sensitized with 1 mg ovalbumin + 100 μg test compound; intradermal ovalbumin 3 weeks after sensitization, measured after 48 hours
Experimental: as §1
To test for the induction of delayed-type hypersensitivity to ovalbumin, 3 weeks after the sensitization the guinea pigs were given an intradermal injection of ovalbumin solution (0.1 mg/0.1 ml saline) at one hind foot-pad shaved with a clipper. The size of induration was measured after 48 hours. The extent of induration was calculated by the formula as described in Biken Journal, 20, pages 95-103 (1977).

[5] = dose 0.0125 mg/kg i.v. 72, 48 and 24 hours before i.p. infection
[6] = dose 0.05 mg/kg i.v. 72, 48 and 24 hours before i.p. infection
[7] = dose 0.2 mg/kg i.v. 72, 48 and 24 hours before i.p. infection
[8] = dose 0.8 mg/kg i.v. 72, 48 and 24 hours before i.p. infection
[9] = dose 3.1 mg/kg i.v. 72, 48 and 24 hours before i.p. infection
[10] = dose 12.5 mg/kg i.v. 72, 48 and 24 hours before i.p. infection

Molecule	Solubility ([1]; in diethyl ether)	Solubility ([1]; in water, 50% C1-3 alcohol)	Antibody nitrogen (antiovalbumin antibody) [µg/mL]	Corneal response [2]	Number of survivors/total number of test animals ([3]; dose 0.0031 mg/kg i.v. 72, 48 and 24 hours before i.p. infection)	Number of survivors/total number of test animals [3, 5]	Number of survivors/total number of test animals [3, 6]	Number of survivors/total number of test animals [3, 7]	Number of survivors/total number of test animals [3, 8]	Number of survivors/total number of test animals [3, 9]	Number of survivors/total number of test animals [3, 10]	Skin reaction [4]
CC(=O)N[C@H]1[C@H](O[C@H]2[C@H](O[C@H](C)C(=O)N[C@@H](C)C(=O)N[C@H](CCC(=O)N[C@@H](CCC[C@@H](N)C(N)=O)C(=O)O)C(N)=O)[C@@H](NC(C)=O)C(O)O[C@@H]2CO)O[C@H](CO)[C@@H](O)[C@@H]1O (stereo partly drawn) [GMP3 -A, β-N-acetylglucosaminyl-(1→4)-N-acetylmuramyl-L-alanyl-D-isoglu taminyl-(L)-meso-2,6-diaminopimelic acid-(D)-amide]	insoluble	Soluble	350 ± 50	2.2	7/16	9/16	9/16	8/16	10/16	14/16	16/16	2.5
CC(=O)N[C@H]1[C@H](O[C@H]2[C@H](O[C@H](C)C(=O)N[C@@H](C)C(=O)N[C@H](CCC(=O)N[C@@H](CCC[C@@H](N)C(N)=O)C(=O)N[C@H](C)C(=O)O)C(N)=O)[C@@H](NC(C)=O)C(O)O[C@@H]2CO)O[C@H](CO)[C@@H](O)[C@@H]1O (stereo partly drawn) [GMP4 -A, β-N-acetylglucosaminyl-(1→4)-N-acetylmuramyl-L-alanyl-D-isoglu taminyl-(L)-meso-2,6-diaminopimelic acid-(D)-amide-(L)-D-alanine]	insoluble	Soluble	399 ± 90	2.0	–	6/16	6/16	4/16	7/16	7/16	16/16	3.7
β-N-acetylglucosaminyl-(1→4)-N,6-O-diacetylmuramyl-L-alanyl-D- isoglutaminyl-(L)-meso-2,6-diaminopimelic acid-(D)-amide-(L)-D-alanine [GMP4 -B]	–	–	216 ± 57	2.2	–	4/16	4/16	6/16	9/16	10/16	16/16	3.7
β-N-acetylglucosaminyl-(1→4)-N,6O-diacetylmuramyl-L-alanyl-D-i soglutaminyl-(L)-meso-2,6-diaminopimelic acid-(D)-amide [GMP3 -B]	insoluble	Soluble	250 ± 40	2.4	–	5/16	7/16	9/16	10/16	12/16	16/16	3.5
